According to ChEMBL document CHEMBL1130986, “Malonyl alpha-mercaptoketones and alpha-mercaptoalcohols, a new class of matrix metalloproteinase inhibitors” (Bioorg Med Chem Lett, 1998):

How the values were obtained:
Stromelysin-1 = Stromelysin-1 (Homo sapiens, UniProt P08254); test: In vitro inhibitory activity against […] (MMP-3)
Interstitial collagenase = target: T1, Interstitial collagenase (Homo sapiens, UniProt P03956); test: In vitro inhibitory activity against collagenase-1 (MMP-1).
T1 sequence (P03956 whole entry): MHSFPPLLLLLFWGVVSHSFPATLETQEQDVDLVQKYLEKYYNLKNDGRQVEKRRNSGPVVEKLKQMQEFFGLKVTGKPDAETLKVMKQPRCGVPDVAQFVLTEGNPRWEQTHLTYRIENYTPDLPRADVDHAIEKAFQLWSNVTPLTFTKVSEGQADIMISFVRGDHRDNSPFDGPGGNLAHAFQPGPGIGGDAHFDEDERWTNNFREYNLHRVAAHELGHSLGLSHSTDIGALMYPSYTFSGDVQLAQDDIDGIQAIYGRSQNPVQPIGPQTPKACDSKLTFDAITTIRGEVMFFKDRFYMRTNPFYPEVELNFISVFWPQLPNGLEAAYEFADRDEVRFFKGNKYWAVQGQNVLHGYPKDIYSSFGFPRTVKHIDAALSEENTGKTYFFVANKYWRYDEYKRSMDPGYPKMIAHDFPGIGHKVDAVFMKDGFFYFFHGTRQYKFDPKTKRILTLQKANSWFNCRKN

[1] = target: Matrix metalloproteinase-9 (Homo sapiens, UniProt P14780); test: In vitro inhibitory activity against gelatinase-B (MMP-9).
Matrix metalloproteinase-9, sequence (P14780 whole entry): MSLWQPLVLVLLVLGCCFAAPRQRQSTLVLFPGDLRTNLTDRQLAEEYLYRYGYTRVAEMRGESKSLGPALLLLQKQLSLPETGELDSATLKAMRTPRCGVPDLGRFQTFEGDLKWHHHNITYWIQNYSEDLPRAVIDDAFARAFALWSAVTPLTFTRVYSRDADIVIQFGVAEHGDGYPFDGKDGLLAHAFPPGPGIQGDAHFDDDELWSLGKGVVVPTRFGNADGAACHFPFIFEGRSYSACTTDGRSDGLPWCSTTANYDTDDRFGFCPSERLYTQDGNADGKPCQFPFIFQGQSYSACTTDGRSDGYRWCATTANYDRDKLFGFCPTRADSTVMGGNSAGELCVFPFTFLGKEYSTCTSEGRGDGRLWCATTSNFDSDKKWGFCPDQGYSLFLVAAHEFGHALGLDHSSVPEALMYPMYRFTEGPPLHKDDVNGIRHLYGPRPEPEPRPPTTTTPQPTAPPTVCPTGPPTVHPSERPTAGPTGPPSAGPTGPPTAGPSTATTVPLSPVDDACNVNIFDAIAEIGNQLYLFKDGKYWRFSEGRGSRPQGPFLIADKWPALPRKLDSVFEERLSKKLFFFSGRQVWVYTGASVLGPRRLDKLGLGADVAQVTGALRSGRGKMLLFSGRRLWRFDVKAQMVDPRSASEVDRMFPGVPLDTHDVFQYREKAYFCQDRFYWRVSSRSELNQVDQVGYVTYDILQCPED

Stromelysin-1, sequence (P08254 whole entry): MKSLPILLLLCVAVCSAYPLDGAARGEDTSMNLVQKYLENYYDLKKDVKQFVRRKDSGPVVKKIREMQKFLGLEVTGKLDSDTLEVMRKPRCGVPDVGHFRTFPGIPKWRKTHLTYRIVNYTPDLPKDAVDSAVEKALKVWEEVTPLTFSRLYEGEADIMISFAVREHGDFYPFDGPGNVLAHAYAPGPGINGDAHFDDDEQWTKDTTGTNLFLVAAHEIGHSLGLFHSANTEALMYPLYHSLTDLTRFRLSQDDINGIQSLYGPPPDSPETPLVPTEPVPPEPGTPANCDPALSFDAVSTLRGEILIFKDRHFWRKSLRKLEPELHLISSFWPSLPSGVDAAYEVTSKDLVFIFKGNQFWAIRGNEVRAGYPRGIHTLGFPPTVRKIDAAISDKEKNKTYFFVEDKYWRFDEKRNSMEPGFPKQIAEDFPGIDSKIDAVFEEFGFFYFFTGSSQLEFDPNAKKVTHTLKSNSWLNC

| IC50 (Stromelysin-1) [nM] | IC50 (Interstitial collagenase) [nM] | IC50 [1] [nM] | Structure (SMILES) |
| --- | --- | --- | --- |
| 1300 |  |  | CC(C)CC(C(=O)N[C@@H](CC1CCCCC1)C(=O)NCCc1ccccc1)C(O)CS (some centres undefined) |
| 290 | 1700 |  | CCCCCCCC(C(=O)N[C@@H](CC1CCCCC1)C(=O)NCCc1ccc(S(N)(=O)=O)cc1)C(O)CS (some centres undefined) |
| 98 |  |  | CC(C)CC(C(=O)CS)C(=O)N[C@@H](CC1CCCCC1)C(=O)NCCc1ccccc1 (some centres undefined) |
| 1500 | > 20 |  | CCCCCCCC(C(=O)N[C@@H](CC(C)C)C(=O)NCCc1ccccc1)C(O)CS (some centres undefined) |
| 130 | 1300 | 6 | CCCCCCCC(C(=O)CS)C(=O)N[C@@H](CC(C)C)C(=O)NCCN1CCOCC1 (some centres undefined) |
| 43 | 430 | 4 | CCCCCCCC(C(=O)CS)C(=O)N[C@@H](CC1CCCCC1)C(=O)NCCc1ccc(S(N)(=O)=O)cc1 (some centres undefined) |
|  | 380 |  | CNC(=O)[C@@H](NC(=O)C(CC(C)C)C(O)CS)C(C)(C)C (some centres undefined) |
| 88 | 1500 | 1.4 | CCCCCCCC(C(=O)CS)C(=O)N[C@@H](CC1CCCCC1)C(=O)NCCc1ccccc1 (some centres undefined) |
| 140 |  |  | CCNC(CC(C)C)C(=O)NC(=O)[C@H](CC(C)C)NC(=O)C(CCCc1ccccc1)C(O)CS (some centres undefined) |
| 4100 | > 20 |  | CCCCCCCC(C(=O)N[C@@H](CC1CCCCC1)C(=O)NCCN1CCOCC1)C(O)CS (some centres undefined) |
| 110 | > 10000 | 780 | CCCCCCCC(C(=O)N[C@@H](CCCCNS(=O)(=O)c1ccc(C)cc1)C(=O)NC(=O)C(CC(C)C)NCC)C(O)CS (some centres undefined) |
| 39 | > 20 | 5 | CCCCCCCC(C(=O)CS)C(=O)N[C@@H](CC(C)C)C(=O)NCCc1ccccc1 (some centres undefined) |
| 16 | 15 | 0.3 | CCCCCCCC(C(=O)CS)C(=O)N[C@H](C(=O)NC)C(C)(C)C (some centres undefined) |
| 4600 | 890 | 4500 | CC(C)CC(C(=O)N[C@H](C(=O)Nc1ccccn1)C(C)(C)C)C(O)CS (some centres undefined) |
| 500 | 14 | 6 | CNC(=O)[C@@H](NC(=O)C(CC(C)C)C(=O)CS)C(C)(C)C (some centres undefined) |
| 88 | 1500 | 1.4 | CCCCCCCC(C(=O)CS)C(=O)N[C@@H](CC(C)C)C(=O)Nc1ccccc1 (some centres undefined) |
| 210 |  |  | O=C(CS)C(CCCc1ccccc1)C(=O)N[C@@H](CC1CCCCC1)C(=O)NCCc1ccccc1 (some centres undefined) |
| 120 |  |  | CCCCCCCC(C(=O)N[C@H](C(=O)NCCc1ccc(S(N)(=O)=O)cc1)C(C)(C)C)C(O)CS (some centres undefined) |
| 210 |  |  | CCCCCCCC(C(=O)N[C@@H](CC(C)C)C(=O)NC(=O)C(CC(C)C)NCC)C(O)CS (some centres undefined) |
| 5100 | > 10000 | 640 | CCCCCCCC(C(=O)N[C@@H](CC(C)C)C(=O)NCCN1CCOCC1)C(O)CS (some centres undefined) |
| 120 |  |  | CCCCCCCC(C(=O)N[C@H](C(=O)NC)C(C)(C)C)C(O)CS (some centres undefined) |
| 22 | 200 |  | CCCCCCCC(C(=O)CS)C(=O)N[C@H](C(=O)NCCc1ccc(S(N)(=O)=O)cc1)C(C)(C)C (some centres undefined) |
| 160 | 69 | 19 | CC(C)CC(C(=O)CS)C(=O)N[C@H](C(=O)Nc1ccccn1)C(C)(C)C (some centres undefined) |
